From PMC7041945, “Misfolded proteins bind and activate death receptor 5 to trigger apoptosis during unresolved endoplasmic reticulum stress” (eLife, 2020)

Columns and labels:
[1] = tested on: caspase 8 in HCT116 GFP-Trap immunoprecipitates; assay: Caspase 8 activity (caspase glo 8) of GFP immunoprecipitates (beads); type: cell-based, Homo sapiens; conditions: for Mean ± SEM (IP): GFPTrap beads, relative to GFP; for 95% confidence interval of difference (IP) / Difference between means (IP): vs. GFP
Protocol: 15 cm dishes were seeded with 4 million HCT116 cells and allowed to recover for 18 hr prior to transfection. Samples were then transfected for 24 hr with the GFP-tagged ER trafficked protein, cytosolic GFP, or empty vector. To harvest apoptotic and living cells for each sample, all media and washes were collected. Cells were scraped in 2 ml of cold PBS and combined with the media and washes. Samples were centrifuged to pellet cells, washed with 1 ml cold PBS, and flash frozen in liquid N2 prior to lysis.
The cell pellets were resuspended in 750 μl of 30 mM HEPES pH 7.2, 150 mM NaCl, 1% Triton X-100 with 1x Roche protease inhibitor cocktail (if used subsequently for caspase glo 8 assay) or with 5x Roche protease inhibitor cocktail (if used for immunoblotting). The cells were lysed by mechanical shearing through a 25G needle for 13–15 plunges followed by incubation on ice for 30 min. The lysate was centrifuged at 2000xg for 5 min to remove debris and then incubated with 30 μl of GFP-Trap magnetic agarose beads (Chromotek gtma-20) for 4 hr at 4°C. The beads were then washed with 750 μl of lysis buffer for 10 min at 4°C for three rounds.
For measuring caspase activity, a fifth of the beads was resuspended in 40 μl of 30 mM HEPES pH 7.2, 150 mM NaCl, 1% Triton X-100. 10 μl of the resuspended mixture was incubated with 10 ul of the caspase glo 8 luminogenic substrate (Promega #PRG8200) for 45 min at RT before measuring luminescence.

[2] = tested on: DR5 / ERGIC53 / giantin in HCT116 cells; assay: Immunofluorescence co-localization (Pearson's correlation per cell); type: cell-based, Homo sapiens
Protocol: HCT116 were seeded at 25000 cells per well in an 8-well glass-bottom μSlide (Ibidi 80827) pre-coated with Collagen IV (Sigma-Aldrich C6745, 0.03 mg/ml in PBS incubated for 30 min at RT, and then rinsed off with PBS x 3) in growth media 18 hr prior to transfection (see above for protocol). 24 hr post-transfection, the cells were fixed using 4% paraformaldehyde (PFA, Electron Microscopy Sciences) or methanol, depending on the antibody combination used for immunostaining (see table below). Samples were protected from light after fixation to preserve GFP fluorescence.
For fixation with 4% PFA, 32% PFA was added directly to the well in growth media for a 1:8 dilution and incubated for 10–15 min at RT. Cells were then permeabilized with PHEM buffer (60 mM PIPES, 25 mM HEPES, 10 mM EGTA, 2 mM MgCl2-hexahydrate, pH 6.9) containing 0.1% Triton-X100 for 10 min at RT for three washes.
For fixation with methanol, media was removed and cells were washed with cold PBS. Then methanol (pre-cooled at −20°C) was added to the well and incubated at −20°C for 3–4 min. The methanol was promptly aspirated and replaced with PHEM buffer (without Triton X-100), followed by two more 10 min washes with PHEM at RT.
To block against non-specific antibody interactions, cells were rinsed in PHEM (without 0.1% Triton X-100) and then incubated with PHEM containing 2% normal goat serum (Jackson Immunoresearch Laboratories, 005-000-121) for 1 hr at RT. Primary antibodies were incubated in blocking solution overnight at 4°C at the dilution noted in the table above. Cells were then washed with PHEM buffer for 10 min at RT x three and incubated with secondary antibodies, anti-mouse-AlexaFluor546 (Invitrogen A11030) and anti-rabbit-AlexaFluor633 (Invitrogen A21071), diluted 1:1000 in PHEM with 2% normal goat serum. (Secondary antibody solutions were centrifuged at 15000xg for 20 mins at 4°C to remove aggregates prior to incubating with cell samples.) After a 1 hr incubation at RT, cells were washed with PHEM buffer once, then incubated with PHEM buffer containing nuclear stain (DAPI, Molecular Probes, Eugene, OR, D-1306, 5 μg/mL), and finally rinsed with PHEM buffer twice before imaging.
Samples were imaged on a spinning disk confocal with Yokogawa CSUX A1 scan head, Andor iXon EMCCD camera, and 40x Plan Apo air Objective NA 0.95 or 100x ApoTIRF objective NA 1.49 (Nikon).
From the 405 nm channel, cell nuclei were identified as primary objects using maximum correlation thresholding (MCT) and shape to distinguish clumped objects. Secondary objects were outlined using propagation from the nuclei (DAPI) after applying MCT from the 488 nm, 561 nm, and 633 nm channels. Tertiary objects for each cell was identified as the mask of each nucleus subtracted from the mask of its corresponding secondary object in each channel, yielding masks for intracellular GFP-tagged protein from the 488 nm channel, for intracellular DR5 from the 561 nm channel, and for the organelle marker in the 633 nm channel. For overlap between DR5 and MPZ/RHO-GFP, Pearson’s correlation coefficients were calculated within the MPZ/RHO mask for each cell to filter out untransfected cells. For overlap between DR5/MPZ and organelle markers, Pearson’s correlation coefficients were calculated within tertiary objects for the organelle marker in GFP+ cells. Statistical analyses for all data sets were performed using GraphPad Prism 6.0.

[3] = tested on: GADD34 mRNA in HCT116 cells; assay: qPCR of GADD34 transcript; type: cell-based, Homo sapiens; conditions: HCT116, 100 nM for 24 hours, norm to GAPDH
[4] = tested on: MPZ; assay: qPCR of transfected MPZ transcript (primers 296+297), normalized to GAPDH; type: cell-based; conditions: qPCR Rep 2, WT MPZ GFP 1000 ng, or empty traffo + Tg; for 2^-(deltaCq), MPZ: vs avg GAPDH
[5] = HCT116, 24 hr post-transfection, Mean ± SEM

fold change relative to GFP (GFPTrap beads) ([1]; Rep 1)	fold change relative to GFP (GFPTrap beads) ([1]; Rep 2)	fold change relative to GFP (GFPTrap beads) ([1]; Rep 3)	GFPTrap beads RLUs ([1]; replicate 1)	GFPTrap beads RLUs ([1]; replicate 2)	GFPTrap beads RLUs ([1]; replicate 3)	95% confidence interval of difference (IP) [1]	Difference between means (IP) [1]	Compound	other results
1.64 fold change	0.68 fold change	1.36 fold change	115.391 RLUs	47.845 RLUs	95.69 RLUs	0.1175 to 0.8825	0.5000 ± 0.1202	INS-GFP: GFP-tagged proinsulin expressed from plasmid	Mean ± SEM (IP) ([1]; n=2): 1.500 ± 0.1400, n=2
4.68 fold change	4.56 fold change	5.28 fold change	329.286 RLUs	320.842 RLUs	371.502 RLUs	3.209 to 4.472	3.840 ± 0.2275	RHO-GFP: GFP-tagged rhodopsin expressed from plasmid	overlap (mean Pearson's correlation) with DR5 signal ([2]; versus 90° rotated images, 24 hr): statistically significant overlap with DR5 signal; caspase 8 activity of immunoprecipitates ([1]; GFP pulldown): enriched for DR5 protein and caspase 8 activity more robustly than INS-GFP; Mean ± SEM (IP) ([1]; n=3): 4.840 ± 0.2227, n=3; average fold change relative to GFP (GFPTrap beads) ([1]; average of replicates): 4.84 fold change
								C/C=C(/C)C(=O)O[C@H]1C(C)=C2[C@H]([C@@H]1OC(=O)CCCCCCC)[C@@](C)(OC(C)=O)C[C@H](OC(=O)CCC)[C@@]1(O)[C@H]2OC(=O)[C@@]1(C)O [thapsigargin, reference compound]	avg. fold induction, GADD34 [3]: 11.3183; avg. fold induction relative to WT MPZ DMSO, MPZ ([4]; mean of 3): 9.712 fold; fold induction relative to WT MPZ DMSO, MPZ ([4]; replicate 1): 3.402 fold; fold induction relative to WT MPZ DMSO, MPZ ([4]; replicate 2): 14.9405 fold; fold induction relative to WT MPZ DMSO, MPZ ([4]; replicate 3): 10.7918 fold; 2^-(deltaCq), MPZ ([4]; replicate 1): 0.0001664; 2^-(deltaCq), MPZ ([4]; replicate 2): 0.0007308; 2^-(deltaCq), MPZ ([4]; replicate 3): 0.0005279
								FTWRYQPEGGRDAISIFHYA [MPZ-ecto peptide-eGFP, expressed construct: MPZ ectodomain replaced by the MPZ-ecto peptide, GFP-tagged]	Pearson's correlation per cell of GFP-tagged peptide with DR5 [2, 5]: 0.23 ± 0.04; Pearson's correlation per cell of GFP-tagged peptide with ERGIC [2, 5]: 0.18 ± 0.04; Pearson's correlation per cell between DR5 and ERGIC ([2]; HCT116 expressing GFP-tagged peptide, 24 hr, Mean ± SEM): 0.34 ± 0.03
